Results as given in patent US8227422B2, “Peptides and compounds that bind to a receptor” (Glaxosmithkline LLC, priority 1996, dated 2012).
Like-named read-outs stand apart in the source and are kept apart here. Where a SMILES comes first, the peptide text is derived from it.

Assays:
[1] = target: T1, TPO receptor (Homo sapiens, UniProt P40238); experiment: Microphysiometer assay: rate of acidification of extracellular medium on TPO receptor stimulation; type: cell-based
T1 sequence (P40238 26-635): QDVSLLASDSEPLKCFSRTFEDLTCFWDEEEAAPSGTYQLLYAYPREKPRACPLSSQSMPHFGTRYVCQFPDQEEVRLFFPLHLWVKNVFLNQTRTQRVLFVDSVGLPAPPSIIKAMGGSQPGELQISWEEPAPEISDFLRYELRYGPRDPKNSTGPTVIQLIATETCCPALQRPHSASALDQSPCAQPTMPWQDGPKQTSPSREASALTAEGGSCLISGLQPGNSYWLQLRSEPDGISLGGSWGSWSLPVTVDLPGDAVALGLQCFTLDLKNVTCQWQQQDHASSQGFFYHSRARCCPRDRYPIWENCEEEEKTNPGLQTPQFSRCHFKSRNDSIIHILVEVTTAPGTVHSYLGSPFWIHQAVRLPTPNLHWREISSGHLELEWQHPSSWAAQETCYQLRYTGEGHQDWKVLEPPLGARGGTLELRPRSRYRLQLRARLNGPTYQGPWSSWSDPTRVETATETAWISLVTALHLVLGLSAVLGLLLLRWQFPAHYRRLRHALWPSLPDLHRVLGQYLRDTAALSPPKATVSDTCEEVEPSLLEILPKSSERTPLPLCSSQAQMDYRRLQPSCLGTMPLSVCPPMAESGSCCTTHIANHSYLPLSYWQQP
Method: In this example cyclized compounds were subjected to three assays. […] Finally, a microphysiometer (Molecular Devices Corp.) assay was performed. […] The ranges for EC50 are symbolically indicated as for IC50 described above.

[2] = target: T2, human TPO-R (transfected Ba/F3 cells) (Homo sapiens, UniProt P40238); experiment: Thrombopoietin dependent cell proliferation assay (MTT), TPO-R transfected Ba/F3 cells; type: cell-based
T2 construct: Murine IL-3 dependent Ba/F3 cells were transfected with full length human TPO-R; expressed in transfected cells; host or cells: murine Ba/F3 cells
T2 sequence (P40238 26-635): T1 sequence (P40238 26-635)
Method: Bioactivity of the peptides can be measured using a thrombopoietin dependent cell proliferation assay. Murine IL-3 dependent Ba/F3 cells were transfected with full length human TPO-R. In the absence of IL-3 (WEHI-3 conditioned media), these cells are dependent on TPO for proliferation.
The cells were grown in complete RPMI-10 media, containing 10% WEHI-3 conditioned media, then washed twice in PBS, resuspended in media which lacked WEHI-3 conditioned media, and added to wells containing dilutions of peptide or TPO at 2×10^4 cells/well. The cells were incubated for 48 hours at 37° C. in a humidified 5% CO2 atmosphere and metabolic activity was assayed by the reduction of MTT to formazan, with absorbance at 570 nm measured on an ELISA plate reader.

[3] = target: T3, TPO-R (Homo sapiens, UniProt P40238); experiment: Competition binding assay (equilibrium binding ELISA, MBP-TPO156 tracer) on immobilized TPO-R; settings: read-out: IC50
T3 construct: made in house
T3 sequence (P40238 26-491 limits assumed): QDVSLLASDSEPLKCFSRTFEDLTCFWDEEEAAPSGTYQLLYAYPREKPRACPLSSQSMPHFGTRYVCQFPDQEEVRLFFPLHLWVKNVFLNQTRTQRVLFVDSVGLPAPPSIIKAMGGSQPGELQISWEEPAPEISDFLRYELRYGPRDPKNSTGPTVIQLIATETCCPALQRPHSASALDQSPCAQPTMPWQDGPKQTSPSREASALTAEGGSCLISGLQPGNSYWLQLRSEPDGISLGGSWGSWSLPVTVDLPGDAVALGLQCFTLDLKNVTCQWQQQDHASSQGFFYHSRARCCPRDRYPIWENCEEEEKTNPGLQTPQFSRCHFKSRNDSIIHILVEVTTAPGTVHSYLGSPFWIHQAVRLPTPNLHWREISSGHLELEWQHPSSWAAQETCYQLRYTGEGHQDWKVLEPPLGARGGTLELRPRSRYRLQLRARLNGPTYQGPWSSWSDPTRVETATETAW
Method: A variety of methods can be used to evaluate IC50 values. For example, an equilibrium binding ELISA assay, using either MBP-TPO or lacI-peptide tracer, was used to determine whether the peptides inhibit the binding of TPO to the extracellular domain of the TPO receptor. Typically, the IC50 value were determined using the free peptide. The IC50 value can be determined using the free peptide, which optionally can be C-terminally amidated, or can be prepared as an ester or other carboxy amide.
Binding affinities of chemically synthesized peptides for TPO-R were measured in a competition binding assay. The wells of a microtiter plate were coated with 1 mg streptavidin, blocked with PBS/1% BSA, followed by 50 ng of biotinylated anti-receptor immobilizing antibody (Ab179). The wells were then treated with a 1:10 dilution of soluble TPO-R harvest. Various concentrations of peptide or peptide mimetic were mixed with a constant amount of a truncated form of TPO consisting of residues 1-156 fused to the C-terminus of maltose binding protein (MBP-TPO156). The peptide MBP-TPO156 mixtures were added to the TPO-R coated wells, incubated for 2 hours at 4° C. and then washed with PBS. The amount of MBP-TPO156 that was bound at equilibrium was measured by adding a rabbit anti-sera directed against MBP, followed by alkaline phosphatase conjugated goat anti-rabbit IgG. The amount of alkaline phosphatase in each well was then determined using standard methods.
The assay is conducted over a range of peptide concentrations and the results are graphed such that the y axis represents the amount of bound MBP-TPO156 and the x axis represents the concentration of peptide or peptide mimetic.

[4] = Table 4, cyclized compounds, microphysiometer, read-out: EC50 (nM) Microonys
[5] = Table 4, cyclized compounds, read-out: EC50 (nM) Proliferation
[6] = Table 5, value in parentheses, read-out: EC50 (nM), microphysiometer results given in parentheses
[7] = Table 7, dimer compounds, read-out: EC50 (nM) Microonys.

Structure (SMILES)	EC50 [1, 4] [nM]	EC50 [2, 5] [nM]	IC50 ([3]; Table 4, cyclized compounds) [µM]	EC50 [1, 7] [nM]	IC50 ([3]; Table 7, dimer compounds) [µM]	also measured
CC[C@H](C)[C@@H]1NC(=O)[C@H](Cc2c[nH]c3ccccc23)NC(=O)[C@H](CCC(=O)O)NC(=O)[C@H](CCCNC(=N)N)NC(=O)[C@H](CC(C)C)NC(=O)[C@H]([C@@H](C)O)NC(=O)[C@@H]2CCCN2C(=O)CNC(=O)[C@H](CC(=O)O)NC(=O)[C@H](C)NC(=O)CC[C@@H](C(N)=O)NC(=O)[C@H](Cc2ccccc2)NC(=O)[C@H](CO)NC1=O (HELM PEPTIDE1{A.D.G.P.T.L.R.E.W.I.S.F.E.[am]}$PEPTIDE1,PEPTIDE1,1:R1-13:R3$$$V2.0)	< 200000	< 200000	≤ 200			
CC[C@H](C)[C@@H]1NC(=O)[C@H](Cc2c[nH]c3ccccc23)NC(=O)[C@H](CCC(=O)O)NC(=O)[C@H](CCCNC(=N)N)NC(=O)[C@H](CC(C)C)NC(=O)[C@H]([C@@H](C)O)NC(=O)[C@@H]2CCCN2C(=O)CNC(=O)[C@H](CC(=O)O)NC(=O)[C@H](C)NC(=O)[C@@H](N)CSSC[C@@H](C(N)=O)NC(=O)[C@H](CC2CCCCC2)NC(=O)[C@H](CO)NC1=O [F-CHA] (HELM PEPTIDE1{C.A.D.G.P.T.L.R.E.W.I.S.[Cha].C.[am]}$PEPTIDE1,PEPTIDE1,1:R3-14:R3$$$V2.0; N-terminus and C-terminus assumed)						EC50 [1, 6]: < 500 nM; EC50 ([2]; Table 5, substitutions in cyclized compound, read-out: EC50 (nM) Cell Prolif.): < 500 nM; IC50 ([3]; Table 5): ≤ 0.5 µM
CC[C@H](C)[C@H](NC(=O)[C@H](Cc1c[nH]c2ccccc12)NC(=O)[C@H](CCC(=O)O)NC(=O)[C@H](CCCNC(=N)N)NC(=O)[C@H](CC(C)C)NC(=O)[C@@H](NC(=O)[C@@H]1CCCN1C(=O)CNC(=O)[C@H](CC(=O)O)NC(=O)[C@H](C)NC(=O)[C@@H](N)CSSC[C@H](N)C(=O)N[C@@H](C)C(=O)N[C@@H](CC(=O)O)C(=O)NCC(=O)N1CCC[C@H]1C(=O)N[C@H](C(=O)N[C@@H](CC(C)C)C(=O)N[C@@H](CCCNC(=N)N)C(=O)N[C@@H](CCC(=O)O)C(=O)N[C@@H](Cc1c[nH]c2ccccc12)C(=O)N[C@H](C(=O)N[C@@H](CO)C(=O)N[C@@H](Cc1ccccc1)C(N)=O)[C@@H](C)CC)[C@@H](C)O)[C@@H](C)O)C(=O)N[C@@H](CO)C(=O)N[C@@H](Cc1ccccc1)C(N)=O (HELM PEPTIDE1{C.A.D.G.P.T.L.R.E.W.I.S.F.[am]}|PEPTIDE2{C.A.D.G.P.T.L.R.E.W.I.S.F.[am]}$PEPTIDE1,PEPTIDE2,1:R3-1:R3$$$V2.0)				< 500	≤ 0.5	EC50 ([2]; Table 7, dimer compounds, read-out: EC50 (nM) Prolif.): < 500 nM
CC(C)C[C@H](NC(=O)[C@H](Cc1c[nH]c2ccccc12)NC(=O)[C@H](CCC(N)=O)NC(=O)[C@H](CCCNC(=N)N)NC(=O)[C@H](CC(C)C)NC(=O)[C@@H](NC(=O)[C@@H]1CCCN1C(=O)CNC(=O)[C@H](CCC(=O)O)NC(=O)[C@@H](N)CCCCN)[C@@H](C)O)C(=O)N[C@@H](C)C(=O)N[C@@H](C)C(=O)N[C@@H](CCCNC(=N)N)C(=O)N[C@@H](C)C(=O)NCCCC[C@H](NC(=O)CCNC(=O)[C@H](C)NC(=O)[C@H](CCCNC(=N)N)NC(=O)[C@H](C)NC(=O)[C@H](C)NC(=O)[C@H](CC(C)C)NC(=O)[C@H](Cc1c[nH]c2ccccc12)NC(=O)[C@H](CCC(N)=O)NC(=O)[C@H](CCCNC(=N)N)NC(=O)[C@H](CC(C)C)NC(=O)[C@@H](NC(=O)[C@@H]1CCCN1C(=O)CNC(=O)[C@H](CCC(=O)O)NC(=O)[C@@H](N)CCCCN)[C@@H](C)O)C(N)=O				< 500	≤ 0.5	
CC[C@H](C)[C@H](NC(=O)[C@@H](N)CSSC[C@H](N)C(=O)N[C@H](C(=O)N[C@@H](CCC(=O)O)C(=O)NCC(=O)N1CCC[C@H]1C(=O)N[C@H](C(=O)N[C@@H](CC(C)C)C(=O)N[C@@H](CCCNC(=N)N)C(=O)N[C@@H](CCC(N)=O)C(=O)N[C@@H](Cc1c[nH]c2ccccc12)C(=O)N[C@@H](CC(C)C)C(=O)N[C@@H](C)C(=O)N[C@@H](C)C(=O)N[C@@H](CCCNC(=N)N)C(=O)N[C@@H](C)C(N)=O)[C@@H](C)O)[C@@H](C)CC)C(=O)N[C@@H](CCC(=O)O)C(=O)NCC(=O)N1CCC[C@H]1C(=O)N[C@H](C(=O)N[C@@H](CC(C)C)C(=O)N[C@@H](CCCNC(=N)N)C(=O)N[C@@H](CCC(N)=O)C(=O)N[C@@H](Cc1c[nH]c2ccccc12)C(=O)N[C@@H](CC(C)C)C(=O)N[C@@H](C)C(=O)N[C@@H](C)C(=O)N[C@@H](CCCNC(=N)N)C(=O)N[C@@H](C)C(N)=O)[C@@H](C)O (HELM PEPTIDE1{C.I.E.G.P.T.L.R.Q.W.L.A.A.R.A.[am]}|PEPTIDE2{C.I.E.G.P.T.L.R.Q.W.L.A.A.R.A.[am]}$PEPTIDE1,PEPTIDE2,1:R3-1:R3$$$V2.0)				< 500	≤ 0.5	
CC[C@H](C)[C@@H]1NC(=O)[C@H](Cc2c[nH]c3ccccc23)NC(=O)[C@H](CCC(=O)O)NC(=O)[C@H](CCCNC(=N)N)NC(=O)[C@H](CC(C)C)NC(=O)[C@H]([C@@H](C)O)NC(=O)[C@@H]2CCCN2C(=O)[C@@H](N)CSSC[C@@H](C(N)=O)NC(=O)[C@H](Cc2ccccc2)NC(=O)[C@H](CO)NC1=O [ADG-deletion] (HELM PEPTIDE1{C.P.T.L.R.E.W.I.S.F.C.[am]}$PEPTIDE1,PEPTIDE1,1:R3-11:R3$$$V2.0; N-terminus and C-terminus assumed)						EC50 [1, 6]: < 200000 nM; IC50 ([3]; Table 5): ≤ 200 µM
CC[C@H](C)[C@@H]1NC(=O)[C@H](Cc2c[nH]c3ccccc23)NC(=O)[C@H](CCC(=O)O)NC(=O)[C@H](CCCNC(=N)N)NC(=O)[C@H](CC(C)C)NC(=O)[C@H]([C@@H](C)O)NC(=O)[C@@H]2CCCN2C(=O)CNC(=O)[C@H](CC(=O)O)NC(=O)[C@H](C)NC(=O)[C@H](N)C(C)(C)SSC[C@H](C(N)=O)NC(=O)[C@H](Cc2ccccc2)NC(=O)[C@H](CO)NC1=O (HELM PEPTIDE1{[CC(C)(S[*:3])[C@@H](N)C(=O)[*:2]].A.D.G.P.T.L.R.E.W.I.S.F.[dC].[am]}$PEPTIDE1,PEPTIDE1,1:R3-14:R3$$$V2.0)	< 200000	< 200000	≤ 0.5			
CC[C@H](C)[C@@H]1NC(=O)[C@H](Cc2c[nH]c3ccccc23)NC(=O)[C@H](CCC(=O)O)NC(=O)[C@H](CCCNC(=N)N)NC(=O)[C@H](CC(C)C)NC(=O)[C@H]([C@@H](C)O)NC(=O)[C@@H]2CCCN2C(=O)CNC(=O)[C@H](CC(=O)O)NC(=O)[C@H](C)NC(=O)CSC(C)(C)[C@@H](C(N)=O)NC(=O)[C@H](Cc2ccccc2)NC(=O)[C@H](CO)NC1=O (HELM PEPTIDE1{[O=C(C[*:3])[*:2]].A.D.G.P.T.L.R.E.W.I.S.F.[Pen].[am]}$PEPTIDE1,PEPTIDE1,1:R3-14:R3$$$V2.0)	< 200000	< 200000	≤ 200			
CC[C@H](C)[C@@H]1NC(=O)[C@H](Cc2c[nH]c3ccccc23)NC(=O)[C@H](CCC(=O)O)NC(=O)[C@H](CCCNC(=N)N)NC(=O)[C@H](CC(C)C)NC(=O)[C@H]([C@@H](C)O)NC(=O)[C@@H]2CCCN2C(=O)CNC(=O)[C@H](CC(=O)O)NC(=O)[C@H](C)NC(=O)C[S+]([O-])C[C@@H](C(N)=O)NC(=O)[C@H](Cc2ccccc2)NC(=O)[C@H](CO)NC1=O (stereo partly drawn) (HELM PEPTIDE1{A.D.G.P.T.L.R.E.W.I.S.F.[O=C([C@H](C[S+]([O-])CC(=O)[*:3])N[*:1])[*:2]].[am]}$PEPTIDE1,PEPTIDE1,1:R1-13:R3$$$V2.0)	< 200000	< 200000	≤ 200			
